Three compounds from PMC7979765, “trans-Translation inhibitors bind to a novel site on the ribosome and clear Neisseria gonorrhoeae in vivo” (Nature Communications, 2021) can be followed below.

Series [1] in a line: Aqueous solubility (nephelometric). The class given is physicochemical. Conditions: for Solubility: single replicates.
For another series, the system named is trans-translation. In words: microbe, parasite or virus in culture. The format is cell-based, Escherichia coli. The settings on record: for IC50: Eco Luc reporter, one value per replicate, read-out: IC50; for Luminescence readout (Envision plate reader) / Luminescence, background subtracted (DMSO control): per replicate. The method, then: To verify that MBX-4132 retains activity as an inhibitor of trans-translation, we measured its dose-dependent activity against the non-stop luciferase reporter assay strain E. coli SB75 ΔtolC::kan (pluc-trpAt) essentially as described, with modifications. Briefly, serial 1.5-fold dilutions of MBX-4132 in DMSO were transferred to 96-well assay plates (Costar 3195), followed by the addition of 50 µl of an overnight culture of SB75 ΔtolC::kan (pluc-trpAt) that had been diluted to a final OD600 of 0.4 with LB media supplemented with 100 µg ampicillin/ml and 1 mM IPTG. […] The assay plates were incubated at room temperature for 2 h, and 50 µl of BrightGlo (Promega) bioluminescence reagent was added to each well. After 10 min incubation, bioluminescence intensity was measured using an Envision multi-label plate reader (Perkin Elmer). Each assay comprised three technical replicates, and the experiment was repeated three times. The fold induction for each MBX-4132 treated sample as compared to the DMSO-only sample was calculated for each technical replicate, and the average and standard deviation of the three technical was calculated. The IC50 was determined using a 4-parameter nonlinear curve fitting algorithm (GraphPad Prism).

For the next series, the system named is Escherichia coli. In words: microbe, parasite or virus in culture. The format is cell-based. Conditions: E. coli KLE701 (ΔtolC::tet); source data, individual replicates.
In series [2] the test system is HeLa cells. In words: Mammalian cell cytotoxicity (CC50). The format is cell-based, human. The settings on record: HeLa, replicates. The method, then:
The half maximal cytotoxic concentration (CC50) of each compound against HeLa cells (ATCC CCL-2) was measured as previously described. […] The mean values for each biological replicate were averaged, and the CC50 was determined using a 4-parameter nonlinear curve fitting algorithm (GraphPad Prism). The average of the CC50s from two biological replicates was calculated and reported.

In another series the test system is Neisseria gonorrhoeae. In words: MIC, microbroth dilution, G77L medium. The settings on record: Neisseria gonorrhoeae ATCC 49226; source data, individual replicates. The class given is cell-based. (Broth dilution looks for growth in wells or tubes with falling amounts of substance.)
Series [3] is described as follows: Liver microsome stability, murine. The format is in vitro ADME, mouse. The settings on record: murine liver microsomes; for Average MLMS t½: average of replicates; for MLMS t½: individual replicates. In short, it runs like this: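 Compounds incubated with liver microsomes plus NADPH over 30 min; parent remaining quantified by reverse-phase LC/MS. Half-life from linear regression over several time points.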

The subject of series [4] is HeLa cells. In words: Mammalian cell cytotoxicity (CC50). The class given is cell-based, human. The settings on record: one value per replicate.

Each structure is given as a SMILES string. ≈ marks a conversion by molar mass, not a printed value. Where “and” joins values, the source holds several entries; their conditions need not be identical. Equal entries are not always repeated. Bounds are passed on as bounds.

As a reminder, the Solubility is the dissolved amount per volume that the medium holds. By IC50 is commonly meant the point on the concentration scale where inhibition reaches its midpoint. For orientation: CC50 means the concentration at which the toxic effect on the cells reaches its halfway point. As to `O=C(Nc1nnc(C2CCCCC2)o1)c1ccc(Cl)cc1` [MBX-4370], the “Average solubility” value in series [1] came to 50 µM. The same compound registered a Solubility in series [1] of 50 µM (≈ 15.3 µg/mL). In addition, in the series with trans-translation, the half-maximal inhibitory concentration (IC50) is 0.12 µM and 0.122 µM and 0.145 µM. In addition, the “Luminescence readout (Envision plate reader)” value in the series with trans-translation ([Compound] 0.046875 µM) was 496280 and 436160 and 442680; with trans-translation ([Compound] 0.0625 µM), 452080 and 467160 and 463360; in the series with trans-translation ([Compound] 0.09375 µM), 467480 and 440040 and 454600; in the series on trans-translation ([Compound] 0.125 µM), 460600 and 443360 and 458920; with trans-translation ([Compound] 0.1875 µM), 449320 and 468280 and 463760; in the series on trans-translation ([Compound] 0.25 µM), 454000 and 469520 and 468760. The “Luminescence readout (Envision plate reader)” value with trans-translation ([Compound] 0.375 µM) was 472720 and 482560 and 460640; with trans-translation ([Compound] 0.5 µM), 517120 and 524880 and 509520; in the series with trans-translation ([Compound] 0.75 µM), 547920 and 542080 and 527800; in the series with trans-translation ([Compound] 1 µM), 530760 and 535720 and 544960; with trans-translation ([Compound] 1.5 µM) it was 476080 and 424480 and 540520. The “Luminescence, background subtracted (DMSO control)” value with trans-translation ([Compound] 0.0625 µM) is 23120 and 8920 and 25040; in the series with trans-translation ([Compound] 0.1875 µM) it was 20360 and 10040 and 25440; in the series with trans-translation ([Compound] 0.25 µM) it was 25040 and 11280 and 30440; with trans-translation ([Compound] 0.375 µM), 43760 and 24320 and 22320; in the series on trans-translation ([Compound] 0.5 µM) it was 88160 and 66640 and 71200; with trans-translation ([Compound] 0.75 µM) it was 118960 and 83840 and 89480. The “Luminescence, background subtracted (DMSO control)” value in the series with trans-translation ([Compound] 1 µM) was 101800 and 77480 and 106640. In addition, the MIC against Escherichia coli was 0.4778 µg/mL and 0.9555 µg/mL; with Neisseria gonorrhoeae it was 0.2388 µg/mL and 0.1196 µg/mL. Further, the “NORMALIZED DATA (Fraction DMSO Control)” value with HeLa cells [2] ([CMPD] 0.78125 µM) was 1.07 Fraction DMSO Control and 1.036 Fraction DMSO Control and 1.021 Fraction DMSO Control and 1.042 Fraction DMSO Control and 1.024 Fraction DMSO Control and 0.9956 Fraction DMSO Control; in the series on HeLa cells [2] ([CMPD] 1.5625 µM), 1.061 Fraction DMSO Control and 1.02 Fraction DMSO Control and 0.9814 Fraction DMSO Control and 1.082 Fraction DMSO Control and 1.03 Fraction DMSO Control and 0.9471 Fraction DMSO Control; in the series with HeLa cells [2] ([CMPD] 3.125 µM), 1.05 Fraction DMSO Control and 1.039 Fraction DMSO Control and 0.9574 Fraction DMSO Control and 1.045 Fraction DMSO Control and 1.018 Fraction DMSO Control and 0.9296 Fraction DMSO Control; in the series on HeLa cells [2] ([CMPD] 6.25 µM), 1.047 Fraction DMSO Control and 1.02 Fraction DMSO Control and 0.985 Fraction DMSO Control and 1.025 Fraction DMSO Control and 0.9985 Fraction DMSO Control and 0.9262 Fraction DMSO Control; in the series with HeLa cells [2] ([CMPD] 12.5 µM), 0.7981 Fraction DMSO Control and 0.8325 Fraction DMSO Control and 0.8129 Fraction DMSO Control and 0.8056 Fraction DMSO Control and 0.7525 Fraction DMSO Control and 0.7321 Fraction DMSO Control; with HeLa cells [2] ([CMPD] 25 µM) it was 0.4723 Fraction DMSO Control and 0.5367 Fraction DMSO Control and 0.6164 Fraction DMSO Control and 0.4594 Fraction DMSO Control and 0.5425 Fraction DMSO Control and 0.5809 Fraction DMSO Control. The “NORMALIZED DATA (Fraction DMSO Control)” value in the series with HeLa cells [2] ([CMPD] 50 µM) is 0.2465 Fraction DMSO Control and 0.3246 Fraction DMSO Control and 0.4191 Fraction DMSO Control and 0.3946 Fraction DMSO Control and 0.4088 Fraction DMSO Control and 0.4903 Fraction DMSO Control; with HeLa cells [2] ([CMPD] 100 µM) it was 0.4495 Fraction DMSO Control and 0.5491 Fraction DMSO Control and 0.5315 Fraction DMSO Control and 0.5237 Fraction DMSO Control and 0.6389 Fraction DMSO Control and 0.5972 Fraction DMSO Control. Further, in series [3], the “Average MLMS t½” value was <5 min. For the same compound, the “MLMS t½” value in series [3] is listed as <5 min. Besides, in the series with HeLa cells [4], the CC50 was 18.1 µM and 19.4 µM and 21.8 µM and 14.3 µM and 14.5 µM and 13.7 µM.
On to `Fc1ccc(-c2nnc(NCc3ccc(Cl)cc3)o2)cc1` [MBX-3776], for which, in series [1], the “Average solubility” value stood at 25 µM. Besides, the Solubility in series [1] is 25 µM (≈ 7.59 µg/mL). The IC50 in the series on trans-translation was ≥ 25 µM. Besides, the MIC result against Escherichia coli and in the series on Neisseria gonorrhoeae was “>=30.372 µg/ml” each time. Moreover, the “NORMALIZED DATA (Fraction DMSO Control)” value with HeLa cells [2] ([CMPD] 0.78125 µM) was 0.9425 Fraction DMSO Control and 0.9291 Fraction DMSO Control and 1.002 Fraction DMSO Control and 0.9674 Fraction DMSO Control and 0.9349 Fraction DMSO Control and 0.9583 Fraction DMSO Control; in the series on HeLa cells [2] ([CMPD] 1.5625 µM) it was 0.9887 Fraction DMSO Control and 1.033 Fraction DMSO Control and 1.0461 Fraction DMSO Control and 0.981 Fraction DMSO Control and 0.9949 Fraction DMSO Control and 1.019 Fraction DMSO Control; in the series on HeLa cells [2] ([CMPD] 3.125 µM) it was 0.9887 Fraction DMSO Control and 0.9933 Fraction DMSO Control and 1.016 Fraction DMSO Control and 0.9805 Fraction DMSO Control and 0.9905 Fraction DMSO Control and 1.024 Fraction DMSO Control; in the series with HeLa cells [2] ([CMPD] 6.25 µM), 0.964 Fraction DMSO Control and 0.9895 Fraction DMSO Control and 1.009 Fraction DMSO Control and 1.011 Fraction DMSO Control and 0.9848 Fraction DMSO Control and 0.9995 Fraction DMSO Control; in the series with HeLa cells [2] ([CMPD] 12.5 µM), 0.9916 Fraction DMSO Control and 1.003 Fraction DMSO Control and 0.985 Fraction DMSO Control and 0.9785 Fraction DMSO Control and 0.9711 Fraction DMSO Control and 0.9946 Fraction DMSO Control; in the series on HeLa cells [2] ([CMPD] 25 µM), 0.8342 Fraction DMSO Control and 0.8793 Fraction DMSO Control and 0.8796 Fraction DMSO Control and 0.8381 Fraction DMSO Control and 0.8221 Fraction DMSO Control and 0.8915 Fraction DMSO Control. Besides, the “NORMALIZED DATA (Fraction DMSO Control)” value with HeLa cells [2] ([CMPD] 50 µM) is 0.8682 Fraction DMSO Control and 0.9316 Fraction DMSO Control and 0.8851 Fraction DMSO Control and 0.8718 Fraction DMSO Control and 0.8862 Fraction DMSO Control and 0.9022 Fraction DMSO Control; with HeLa cells [2] ([CMPD] 100 µM), 0.8662 Fraction DMSO Control and 0.9027 Fraction DMSO Control and 0.8885 Fraction DMSO Control and 0.8759 Fraction DMSO Control and 0.8519 Fraction DMSO Control and 0.9047 Fraction DMSO Control. In addition, the “Average MLMS t½” value in series [3] was determined as 5.3 min. Further, the “MLMS t½” value in series [3] is 4.3 min and 6.3 min. Further, in the series on HeLa cells [4], the CC50 was ≥ 100 µM.
Consider `Cc1ccc(S(=O)(=O)Nc2nnc(-c3ccc(F)cc3)o2)cc1` [MBX-4063], for which, in series [1], the “Average solubility” value is recorded as 100 µM. Moreover, in series [1], the Solubility worked out at 100 µM (≈ 33.3 µg/mL). The IC50 in the series on trans-translation is ≥ 25 µM. The figures for the MIC entry with Escherichia coli and in the series with Neisseria gonorrhoeae were “>=33.334 µg/ml” and “>=33.3 µg/ml”, respectively. The “NORMALIZED DATA (Fraction DMSO Control)” value with HeLa cells [2] ([CMPD] 0.78125 µM) was 1.183 Fraction DMSO Control and 0.9487 Fraction DMSO Control and 1.005 Fraction DMSO Control; in the series on HeLa cells [2] ([CMPD] 1.5625 µM) it was 1.094 Fraction DMSO Control and 0.958 Fraction DMSO Control and 0.97 Fraction DMSO Control; with HeLa cells [2] ([CMPD] 3.125 µM) it was 1.091 Fraction DMSO Control and 0.9572 Fraction DMSO Control and 1.016 Fraction DMSO Control; with HeLa cells [2] ([CMPD] 6.25 µM), 1.076 Fraction DMSO Control and 0.9091 Fraction DMSO Control and 0.9832 Fraction DMSO Control; in the series on HeLa cells [2] ([CMPD] 12.5 µM) it was 1.0577 Fraction DMSO Control and 0.9473 Fraction DMSO Control and 0.9636 Fraction DMSO Control; with HeLa cells [2] ([CMPD] 25 µM) it was 1.026 Fraction DMSO Control and 0.9338 Fraction DMSO Control and 0.9374 Fraction DMSO Control. Moreover, the “NORMALIZED DATA (Fraction DMSO Control)” value in the series on HeLa cells [2] ([CMPD] 50 µM) is 1.123 Fraction DMSO Control and 0.9526 Fraction DMSO Control and 0.9567 Fraction DMSO Control; in the series with HeLa cells [2] ([CMPD] 100 µM), 1.06 Fraction DMSO Control and 0.9108 Fraction DMSO Control and 0.964 Fraction DMSO Control. For the same compound, the “Average MLMS t½” value in series [3] was <5 min. Moreover, the “MLMS t½” value in series [3] was <5 min. For the same compound, the CC50 in the series on HeLa cells [4] was ≥ 100 µM.
